# Reference: paper PMC7961786, “Magic Peptide: Unique Properties of the LRR11 Peptide in the Activation of Leukotriene Synthesis in Human Neutrophils” (International Journal of Molecular Sciences, 2021)
# “Also recorded” adds a separate entry of the source.
# What was measured:
# Assay type in all cases: cell-based
# [1] = system: human neutrophils, 5-LOX metabolites; experiment: 5-LOX metabolite production in neutrophils without bacteria or other phagocytosis targets; details: in the absence of bacteria or other targets for phagocytosis
# Method: Human neutrophils synthesize 5-LOX metabolites (leukotriene B4 (LTB4) and its isomers, ω-OH-LTB4 and 5-HETE), during phagocytosis of opsonized zymosan or S. typhimurium bacteria. In the absence of bacteria or other targets for phagocytosis, treatment of neutrophils with ODNs listed in Table 1 or with LRR11, produce less than 1 ng of LTB4, its isomers, ω-OH-LTB4, and 5-HETE per 10^7 PMNLs. The potential of the LRR11 peptide and ODNs to regulate the synthesis of products catalyzed by 5-LOX was assessed after cell incubation with ODNs (+/−LRR11) followed by the addition of opsonized S. typhimurium bacteria (OS). To test whether neutrophil incubation with ODNs, LRR11 and bacteria affects cell viability, we assessed phosphatidylserine externalization and the integrity of neutrophil membranes after 20 min with ODNs (+/−LRR11) followed by 15 min with OS at 37 °C. The data obtained by flow cytometry using double Alexa Fluor-conjugated Annexin V/propidium iodide staining indicate that in our experiment the percentage of viable cells exceeds 96% (Figure S1).
# Human neutrophils were isolated from freshly taken citrate-anticoagulated peripheral blood from healthy individuals using standard methods. Leukocyte-rich plasma was prepared by sedimentation of erythrocytes with 3% dextran T-500 at room temperature. […]
# human neutrophils [2] = experiment: Reactive oxygen species formation (H2DCF-DA); details: n = 3, Figure 8
# Method: Figure 8 When added simultaneously, LRR11 potentiates the prooxidant effects of oligonucleotides. H2DCF-DA-stained PMNLs (1 × 10^6/mL) were cultured for 1 h at 37 °C in 5% CO2 without additives or in the presence of 1 µM ODN, supplemented (shaded) or not (solid fill) with 1 µM LRR11. DCF green fluorescence signals (ex. 485 nm, em. 538 nm) were monitored every 5 min for an hour. Values represent the means ± SEM of DCF fluorescence intensity increments (RFU) in 30 min after stimulus addition (n = 3). * p < 0.05 for the pairs of data specified, as indicated by two-way ANOVA followed by Tukey’s multiple comparison test.
# The level of intracellular production of reactive oxygen species was monitored by measuring the green fluorescence of H2DCF-DA-labeled oxidized product incorporated into cells according to the manufacturer’s protocol. Briefly, human neutrophils were incubated with 5 μM carboxy-H2DCF-DA (Molecular Probe, Eugene, OR, USA) for 60 min at room temperature, followed by rinsing with PBS. […] Fluorescent cell staining (excitation at 485 nm and emission at 538 nm) was recorded at CLARIOstar fluorescence microplate reader, using MARS Data Analysis Software, version 3.30 (both hardware and software are from BMG Labtech, Ortenberg, Germany).
# human neutrophils [3] = experiment: Intracellular free Ca^2+ in neutrophils (Fluo-3); details: Figure 9
# Method: Figure 9 Effects of ODNs and LRR11 on intracellular concentration of free Ca^2+ in neutrophils. Fluo-3 AM-loaded neutrophils (1 × 10^6/mL) were cultured in fibrinogen-coated flat bottom plates in HBSS/HEPES medium supplemented or not with 1 µM LRR11, without additives or in the presence of 1 µM ODNs, at 37 °C, 5% CO2. Fluo-3 fluorescence signals (ex. 485 nm, em. 538 nm) were monitored with 2-min intervals. (A) Values represent the means ± SEM of fluorescence intensity increments in 7 min after the addition of stimulus (n = 3). * p < 0.05, ** p < 0.01, **** p < 0.001 compared with the control, as indicated by two-way ANOVA followed by Sidak’s multiple comparison test. (B) Representative blank corrected Fluo-3 fluorescence kinetic curves for control (square, black solid line), LRR11 (circle, black dotted line), A-CpG (square, red solid line) and LRR11_A-CpG mix (circle, red dotted line).
# Intracellular Ca^2+ ions were detected by staining with Fluo-3, which is known to dramatically increase fluorescence after binding of calcium ions, was used. According to the manufacturer’s protocol, human neutrophils were incubated with 5 μM Fluo-3 AM ester (Thermo Fisher Scientific, Waltham, MA, USA) for 60 min at room temperature, followed by washing in PBS. Cells were then seeded in fibrinogen-coated 96-well plates (1 × 10^6/mL of HBSS/HEPES) and incubated at 37 °C in 5% CO2. Changes in fluorescence intensity upon excitation at 485 nm and emission at 538 nm were monitored at CLARIOstar fluorescence microplate reader for at least 60 min after stimulus injection, followed by data analysis using MARS Data Analysis Software, version 3.30 (both hardware and software are from BMG Labtech, Ortenberg, Germany).
sequence,measurement,setting,value
"QLRKLNLSFNYQKRVSFAHLSLAPSFGSLV [LRR11, 30 amino acid peptide from leucine-rich repeat of TLR9]","LTB4, its isomers, ω-OH-LTB4, and 5-HETE produced",[1],less than 1 ng per 10^7 PMNLs
same,effect of LRR11 on prooxidant potential of ODNs,"human neutrophils [2]; 1 µM LRR11 + 1 µM ODN, 30 min","Notably enhancing the prooxidant potential of the studied ODNs, in particular, CpG-containing ones; also recorded: only CpG-ODNs in combination with LRR11 enhanced responses"
same,effect of LRR11 alone on synthesis of reactive oxygen species,"human neutrophils [2]; 1 µM LRR11, 37 °C",does not affect the synthesis of reactive oxygen species
same,effect of LRR11 on calcium ion influx with/without ODNs,human neutrophils [3]; 1 µM LRR11 +/- 1 µM ODNs,noticeable only in the absence of ODNs
same,calcium influx,"human neutrophils [3]; 1 µM LRR11 or 1 µM ODNs, Fluo-3, 37 °C, n = 3",potentiates calcium influx
same,time course of cytoplasmic Ca^2+ concentration,human neutrophils [3]; 1 µM LRR11 or 1 µM ODNs,ensures long-term maintenance of an increased cytoplasmic Ca^2+ concentration
